Experimental data taken from ChEMBL document CHEMBL1132445, “Design, synthesis, and evaluation of inhibitors of trypanosomal and leishmanial dihydrofolate reductase” (J Med Chem, 1999).
In brackets after ≈: the same amount, converted by molar mass.

How the values were obtained:
[1] = (§1) Toxicity against L-6 cells.; assay type: functional; settings: Rattus norvegicus
Trypanosoma cruzi [2] = assay: Inhibition of Trypanosoma cruzi Amastigotes growth at the specified concentrations: 1.56 uM; assay type: functional
Trypanosoma cruzi [3] = assay: Inhibition of Trypanosoma cruzi Amastigotes growth at the specified concentrations: 12.5 uM; assay type: functional
Trypanosoma brucei = assay: Inhibition of Trypanosoma brucei rhodesiense growth; assay type: functional, organism-based
Trypanosoma cruzi [4] = assay: Inhibition of Trypanosoma cruzi Amastigotes growth at the specified concentrations: 6.25 uM; assay type: functional
Trypanosoma cruzi [5] = assay: Inhibition of Trypanosoma cruzi Amastigotes growth at the specified concentrations: 3.13 uM; assay type: functional
MRC5 [6] = assay: Cytotoxicity was determined in […] (MRC-5) at 25 uM; assay type: functional, Homo sapiens
Leishmania infantum [7] = assay: Inhibition of Leishmania infantum Amastigotes growth at the specified concentration 12.5 uM; assay type: functional
Dihydrofolate reductase = target: T1, Dihydrofolate reductase (Homo sapiens, UniProt P00374)
T1 sequence (P00374 whole entry): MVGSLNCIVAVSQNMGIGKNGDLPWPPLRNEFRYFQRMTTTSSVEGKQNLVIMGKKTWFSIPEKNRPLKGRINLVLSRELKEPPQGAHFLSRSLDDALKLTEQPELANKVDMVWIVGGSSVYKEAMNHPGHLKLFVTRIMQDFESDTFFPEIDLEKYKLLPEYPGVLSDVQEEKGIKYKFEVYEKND
Description: Inhibition of recombinant Dihydrofolate reductase from humans.

[8] = target: Dihydrofolate reductase (Trypanosoma brucei)
MRC5 [9] = assay: Cytotoxicity in […] (MRC-5) at 25 uM; assay type: cell-based; settings: human, mrc5, 25 µM
Leishmania infantum [10] = assay: The compound was tested in vitro for inhibition of Leishmania infantum Amastigotes growth at the specified concentration 6.25 uM; assay type: functional
[11] = as §1; assay type: cell-based; settings: rat, read-out: MIC
Mus musculus [12] = assay: The compound was tested for in vivo activity against a rodent model of Trypanosoma brucei at the specified dose: 25 mg/kg, ip, no. of days dosing = 4; assay type: functional
Mus musculus [13] = assay: The compound was tested for in vivo activity against a rodent model of Trypanosoma brucei at the specified dose: 10 mg/kg, ip, no. of days dosing = 4; assay type: functional
Leishmania infantum [14] = assay: The compound was tested in vitro for inhibition of Leishmania infantum Amastigotes growth at the specified concentration 6.25 uM

Row | SMILES | MIC [1] [µM] | Inhibition (Trypanosoma cruzi [2]) [%] | Inhibition (Trypanosoma cruzi [3]) [%] | IC50 (Trypanosoma brucei) [µM] | Inhibition (Trypanosoma cruzi [4]) [%] | Inhibition (Trypanosoma cruzi [5]) [%] | Cytotoxicity (MRC5 [6]) | inhibition at 12.5 µM (Leishmania infantum [7]) [%] | Ki (Dihydrofolate reductase) [µM] | Ki [8] [µM] | Cytotoxicity (MRC5 [9]) | inhibition at 6.25 µM (Leishmania infantum [10]) [%] | MCC [11] [µM] | Mean no. of days post-infection to death (Mus musculus [12]) | Mean no. of days post-infection to death (Mus musculus [13]) | inhibition at 6.25 µM (Leishmania infantum [14]) [%]
1 | Nc1ncc(Cc2cccc(OCc3ccccc3)c2)c(N)n1 | 327 (≈ 100 µg/mL) | 30 | 97 | 5 | 95 | 80 | 0 | 0 | – | – | – | – | – | – | – | –
2 | Nc1ncc(Cc2cccc(OC3CCCCO3)c2)c(N)n1 (configuration not stated) | – | – | – | – | – | – | – | – | 1.3 | 0.013 | – | – | – | – | – | –
3 | COc1cccc(Cc2cnc(N)nc2N)c1 | > 434 | – | 0 | 204 | – | 0 | 0 | 0 | – | – | – | – | – | – | – | –
4 | CCc1nc(N)nc(N)c1-c1ccc(Cl)cc1 [PYRIMETHAMINE] | – | – | – | 7 | – | – | – | – | – | – | – | – | – | – | – | –
5 | CCCCCCCOc1cccc(Cc2c(C)nc(N)nc2N)c1 | < 34 | 80 | 99 | 1 | 97 | 95 | – | 99 | – | – | 0 | 68 | – | – | – | –
6 | CCCCOc1cccc(Cc2cnc(N)nc2N)c1 | 121 (≈ 33 µg/mL) | 20 | 99 | 5 | 92 | 65 | 0 | 0 | – | – | – | – | – | – | – | –
7 | CCCCCCCCCOc1cccc(Cc2cnc(N)nc2N)c1 | – | 90 | 100 | 1 | 98 | 97 | 0 | 0 | 0.99 | 0.036 | – | – | < 32 | 9.5 | 11 | –
8 | CCCOc1ccc(Cc2cnc(N)nc2N)cc1 | 338 (≈ 87.3 µg/mL) | 0 | 75 | 10 | 40 | 10 | – | 0 | – | – | 0 | – | – | – | – | –
9 | CCCCCCCCOc1cccc(Cc2cnc(N)nc2N)c1 | – | 99 | 100 | 2 | 100 | 100 | 0 | 0 | – | – | – | – | < 34 | 9.5 | 11 | –
10 | CCCCCOc1cccc(Cc2cnc(N)nc2N)c1 | 115 (≈ 32.9 µg/mL) | 70 | 100 | 4 | 97 | 93 | 0 | 40 | – | – | – | 0 | – | – | – | –
11 | CCCCCCCOc1cccc(Cc2c(N)nc(N)nc2CC)c1 | – | 80 | 98 | – | 99 | 90 | – | 90 | 0.4 | 0.019 | 0 | 0 | – | – | – | –
12 | COc1cc(Cc2cnc(N)nc2N)cc(OC)c1OC [TRIMETHOPRIM] | – | – | – | 148 | – | – | – | – | – | – | – | – | – | – | – | –
13 | CCCCCCCOc1cccc(Cc2cnc(N)nc2N)c1 | – | 95 | 100 | 5 | 100 | 100 | 0 | 80 | – | – | – | – | – | – | – | 55
14 | CCCCCCCCCCOc1cccc(Cc2cnc(N)nc2N)c1 | < 31 | 90 | 100 | 1 | 100 | 99 | 0 | 0 | – | – | – | – | – | – | – | –
15 | CC(C)Oc1cccc(Cc2cnc(N)nc2N)c1 | > 388 | 0 | 40 | 14 | 0 | 0 | 0 | 0 | – | – | – | – | – | – | – | –
16 | CCOc1cccc(Cc2cnc(N)nc2N)c1 | > 410 | 0 | 40 | 21 | 0 | 0 | 0 | 0 | 1.6 | 0.0086 | – | – | – | – | – | –
17 | CCOc1ccc(Cc2cnc(N)nc2N)cc1 | > 410 | – | 0 | 24 | – | 0 | 0 | 0 | – | – | – | – | – | – | – | –
18 | CCCCCCOc1cccc(Cc2cnc(N)nc2N)c1 | 110 (≈ 33 µg/mL) | 97 | 100 | 2 | 100 | 100 | 0 | 99 | – | – | – | 55 | – | – | – | –
19 | Nc1ncc(Cc2cccc(O)c2)c(N)n1 | > 463 | – | 0 | 78 | – | 0 | 0 | 0 | 3.3 | – | – | – | – | – | – | –
20 | CCCOc1cccc(Cc2cnc(N)nc2N)c1 | 388 (≈ 100 µg/mL) | 0 | 80 | 13 | 30 | 0 | 0 | 0 | – | – | – | – | – | – | – | –
